Measurements reported in patent US11415579B2, “Assay for measuring a rate of reaction between a target and a ligand candidate” (Imperial College Innovations Ltd., priority 2016, dated 2022).

Assays:
Cdk2[C177A, F80C, K278C] = biological target: T1, Cdk2[C177A, F80C, K278C] (Homo sapiens, UniProt P24941, C177A/F80C/K278C); assay: Kinetic thiol consumption assay with mutant Cdk2 as model thiol; assay type: binding; design: unit not given here; details: 500 μM ligand, 5 μM thiol, phosphate buffer pH 8
T1 construct: poly-histidine; made in house; host or cells: E. coli
Method in brief: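 Model thiol: His-tagged human Cdk2 C177A/F80C/K278C (two engineered surface cysteines), E. coli-expressed, 5 μM in degassed phosphate buffer pH 8 with immobilized TCEP beads (2% v/v). Fluorescence (ex/em 380/470 nm) followed over time at room temperature, normalized to DMSO/thiol control. First-order decay fit gives rate constants.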

Cdk2(S181C) (C177A) = biological target: T2, Cdk2(S181C) (C177A) (Homo sapiens, UniProt P24941, C177A/S181C); assay: Kinetic thiol consumption assay with Cdk2 mutant S181C; assay type: binding; design: key to Rate enhancement, Cdk2 S181C: rate constant with Cdk2 ÷ rate constant with model thiol (fold); details: additional mutation C177A; for Rate constant with Cdk2 S181C: Protein: Cdk2, cysteine position S181C, in h^-1
T2 construct: poly-histidine; made in house; host or cells: E. coli
Method in brief: (§1)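 His-tagged single-surface-cysteine Cdk2 mutants (C177A background) from E. coli, 5 μM in degassed phosphate buffer pH 8, pre-treated with immobilized TCEP beads. Fluorescence (ex/em 380/470 nm) read after 1 h at room temperature, normalized to DMSO/thiol-only control; first-order decay fits gave rate constants, divided by model-thiol rate for rate enhancement.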

Cdk2(S276C) (C177A) = biological target: T3, Cdk2(S276C) (C177A) (Homo sapiens, UniProt P24941, C177A/S276C); assay: Kinetic thiol consumption assay with Cdk2 mutant S276C; assay type: binding; design: key to Rate enhancement, Cdk2 S276C: rate constant with Cdk2 ÷ rate constant with model thiol (fold); details: additional mutation C177A; for Rate constant with Cdk2 S276C: Protein: Cdk2, cysteine position S276C, in h^-1
T3 construct: poly-histidine; made in house; host or cells: E. coli
Method in brief: as §1

Cdk2(H71C) (C177A) = biological target: T4, Cdk2(H71C) (C177A) (Homo sapiens, UniProt P24941, C177A/H71C); assay: Kinetic thiol consumption assay with Cdk2 mutant H71C; assay type: binding; design: key to Rate enhancement, Cdk2 H71C: rate constant with Cdk2 ÷ rate constant with model thiol (fold); details: additional mutation C177A
T4 construct: poly-histidine; made in house; host or cells: E. coli
Method in brief: as §1

[1] = Kinetic thiol consumption assay with model thiol glutathione; assay type: physicochemical; design: Rate constant with glutathione (k(GSH)): unit not given here; details: for Rate constant with glutathione (k(GSH)): 500 μM ligand, 5 μM thiol, phosphate buffer pH 8; for Rate constant with Glutathione: Protein: Glutathione, cysteine position NA, in h-1
Method in brief: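 First, 5 μM glutathione in degassed phosphate buffer (pH 8) receives immobilized TCEP beads (2% v/v). Then acrylamide is added and plates incubate 1 h at room temperature. Finally, fluorescence (380/470 nm) is normalized and fitted to first-order decay for rate constants.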

Cdk2(R122C) (C177A) = biological target: T5, Cdk2(R122C) (C177A) (Homo sapiens, UniProt P24941, C177A/R122C); assay: Kinetic thiol consumption assay with Cdk2 mutant R122C; assay type: binding; design: key to Rate enhancement, Cdk2 R122C: rate constant with Cdk2 ÷ rate constant with model thiol (fold); details: additional mutation C177A; for Rate constant with Cdk2 R122C: Protein: Cdk2, cysteine position R122C, in h-1
T5 construct: poly-histidine; made in house; host or cells: E. coli
Method in brief: as §1

Cdk2(N272C) (C177A) = biological target: T6, Cdk2(N272C) (C177A) (Homo sapiens, UniProt P24941, C177A/N272C); assay: Kinetic thiol consumption assay with Cdk2 mutant N272C; assay type: binding; design: key to Rate enhancement, Cdk2 N272: rate constant with Cdk2 ÷ rate constant with model thiol (fold); details: for Rate enhancement, Cdk2 N272: Cdk2 N272, additional mutation C177A; for Rate constant with Cdk2 N272C: Protein: Cdk2, cysteine position N272C, additional mutation C177A, in h^-1
T6 construct: poly-histidine; made in house; host or cells: E. coli
Method in brief: as §1

[2] = biological target: T7, human cyclin-dependent kinase 2 (Cdk2) (Homo sapiens, UniProt P24941); assay: Kinetic thiol consumption assay with wild type Cdk2 (C177); assay type: binding; design: key to Rate enhancement, Cdk2 WT: k(Cdk2) divided by k(model thiol); Rate constant with Cdk2 (k(Cdk2)): unit not given here; details: for Rate constant with Cdk2 (k(Cdk2)): 500 μM ligand, 5 μM thiol, phosphate buffer pH 8; for Rate enhancement, Cdk2 WT: no additional mutations; for Rate constant with Cdk2 WT: Protein: Cdk2, cysteine position WT, in h^-1; for k(Cdk2)/k(Cdk2_mut) rate enhancement: model thiol Cdk2[C177A, F80C, K278C]; for k(Cdk2)/k(GSH) rate enhancement: model thiol glutathione
T7 construct: poly-histidine; made in house; host or cells: E. coli
Method in brief: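 Thiol 5 μM (Cdk2 or model thiol), degassed phosphate buffer pH 8, TCEP beads 2% v/v. Plates incubated 1 h RT, ex/em 380/470 nm. First-order decay fit → rate constant; ratio Cdk2/model thiol = rate enhancement.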

Cdk2(C177A, F80C) = biological target: T8, Cdk2(C177A, F80C) (Homo sapiens, UniProt P24941, C177A/F80C); assay: Kinetic thiol consumption assay with Cdk2 mutant F80C, incl. kobs versus concentration (Kd, k2); assay type: binding; design: key to Rate enhancement, Cdk2 F80C: Cdk2 rate constant divided by model-thiol rate constant; details: additional mutation C177A; for Rate constant with Cdk2 F80C: Protein: Cdk2, cysteine position F80C, in h^-1
T8 construct: poly-histidine; made in house; host or cells: E. coli
Method in brief: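 His-tagged Cdk2(C177A/F80C) from E. coli or model thiol, 5 μM in degassed phosphate buffer pH 8 with TCEP beads, reacted with acrylamide ligands; fluorescence (ex/em 380/470 nm) normalized to DMSO control and fitted to first-order decay for kobs. Kd and k2 obtained from hyperbolic fit of kobs versus ligand concentration.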

Cdk2(T182C) (C177A) = biological target: T9, Cdk2(T182C) (C177A) (Homo sapiens, UniProt P24941, C177A/T182C); assay: Kinetic thiol consumption assay with Cdk2 mutant T182C; assay type: binding; design: key to Rate enhancement, Cdk2 T182C: rate constant with Cdk2 ÷ rate constant with model thiol (fold); details: additional mutation C177A; for Rate constant with Cdk2 T182C: Protein: Cdk2, cysteine position T182C, in h^-1
T9 construct: poly-histidine; made in house; host or cells: E. coli
Method in brief: as §1

Rate constant with Cdk2[C177A, F80C, K278C] (k(Cdk2_mut)) (Cdk2[C177A, F80C, K278C])	Rate enhancement, Cdk2 S181C (Cdk2(S181C) (C177A))	Rate constant with Cdk2 S181C (Cdk2(S181C) (C177A))	Rate enhancement, Cdk2 S276C (Cdk2(S276C) (C177A))	Rate constant with Cdk2 S276C (Cdk2(S276C) (C177A))	Rate enhancement, Cdk2 H71C (Cdk2(H71C) (C177A))	Rate enhancement, Cdk2 R122C (Cdk2(R122C) (C177A))	Rate constant with Cdk2 R122C (Cdk2(R122C) (C177A))	Rate enhancement, Cdk2 N272 (Cdk2(N272C) (C177A))	Rate constant with Cdk2 N272C (Cdk2(N272C) (C177A))	Rate constant with Cdk2 (k(Cdk2)) [2]	Rate enhancement, Cdk2 WT [2]	Rate constant with Cdk2 WT [2]	k(Cdk2)/k(Cdk2_mut) rate enhancement [2]	k(Cdk2)/k(GSH) rate enhancement [2]	Rate enhancement, Cdk2 F80C (Cdk2(C177A, F80C))	Rate constant with Cdk2 F80C (Cdk2(C177A, F80C))	Rate enhancement, Cdk2 T182C (Cdk2(T182C) (C177A))	Structure (SMILES)	Rate constant with glutathione (k(GSH)) [1]	Rate constant with Glutathione [1]	also measured
0.00466	0.5614	0.009769	0.5294	0.009212	0	0.221	0.003846	1.169	0.02034	0.00688	0.1766	0.003072	1.479	0.4081	0.02876	0.0005005	1.063	C=CC(=O)N(CC(=O)NC1CC1)C1CC1 [CA-031]	0.01687	0.0174	Rate constant with Cdk2 T182C (Cdk2(T182C) (C177A)): 0.01849
0.00132	1.095	0.008545	0.3503	0.002734	0	0.2272	0.001773	0.6405	0.004999	0.00543	1.211	0.009448	4.114	1.074	0.2601	0.00203	2.301	C=CC(=O)NC1CC(NC(=O)C2CCC2)C1 (stereo not drawn) [CA-202]	0.00506	0.007805	Rate constant with Cdk2 T182C (Cdk2(T182C) (C177A)): 0.01796
0.00407	0.6713	0.005455	0.2024	0.001645	0	0.3699	0.003006	0.1121	0.0009109	0.00303	0.6141	0.00499	0.7455	0.3806	0.7204	0.005854	1.338	C=CC(=O)N1CCCCCC1c1ccc(N(C)C)cc1 (stereo not drawn) [EL-1140]	0.00797	0.008126	Rate constant with Cdk2 T182C (Cdk2(T182C) (C177A)): 0.01087
0.00415	4.792	0.02877	0.4087	0.002454	0.1972	0.3071	0.001844	61.33	0.3682	0.00698	1.749	0.0105	1.682	2.491	0.6003	0.003604	0	C=CC(=O)NCC1CCCN1S(=O)(=O)c1ccc(C)cc1 (stereo not drawn) [CA-118]	0.0028	0.006004	Rate constant with Cdk2 H71C (Cdk2(H71C) (C177A); Protein: Cdk2, cysteine position H71C, in h^-1): 0.001184
